Here are results for two compounds from patent US20200239530A1, “COMPOUNDS AND METHODS OF MODULATING PROTEIN DEGRADATION” (Vividion Therapeutics, Inc., priority 2017, published 2020).

SMILES strings stand for the structures.

Assay [1] has as its target T1, FASTKD5 FAST kinase domain-containing protein 5 (Homo sapiens, UniProt Q7L8L6).
T1 construct: 200 μL of lysate containing 5 mg/ml proteome was treated with 2 μL of 100× compound stock; endogenous in cells
T1 sequence (Q7L8L6 28-764): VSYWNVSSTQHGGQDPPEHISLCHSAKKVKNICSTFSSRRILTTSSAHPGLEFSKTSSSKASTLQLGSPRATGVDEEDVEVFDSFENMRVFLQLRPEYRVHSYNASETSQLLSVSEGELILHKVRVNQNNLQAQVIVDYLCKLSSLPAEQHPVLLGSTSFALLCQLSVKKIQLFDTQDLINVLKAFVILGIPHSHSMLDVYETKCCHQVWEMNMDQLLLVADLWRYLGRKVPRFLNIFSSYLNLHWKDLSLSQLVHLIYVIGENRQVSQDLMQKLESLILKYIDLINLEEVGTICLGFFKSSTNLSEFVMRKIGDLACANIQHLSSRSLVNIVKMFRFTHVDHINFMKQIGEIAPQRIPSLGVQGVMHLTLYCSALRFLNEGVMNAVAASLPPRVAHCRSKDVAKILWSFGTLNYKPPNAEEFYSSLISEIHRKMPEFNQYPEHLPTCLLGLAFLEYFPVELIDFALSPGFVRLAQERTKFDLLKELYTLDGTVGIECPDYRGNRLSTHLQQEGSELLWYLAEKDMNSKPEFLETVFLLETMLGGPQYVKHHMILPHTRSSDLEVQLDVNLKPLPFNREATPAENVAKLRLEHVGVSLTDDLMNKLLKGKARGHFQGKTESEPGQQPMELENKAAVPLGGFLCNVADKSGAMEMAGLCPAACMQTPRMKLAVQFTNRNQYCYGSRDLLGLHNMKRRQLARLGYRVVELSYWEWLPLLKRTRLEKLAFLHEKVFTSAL
In words: Cysteine liganding, probe competition. The class given is binding. The gist of the method:
(§1)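 Read-out is loss of desthiobiotin iodoacetamide labelling at cysteines, measured on streptavidin-enriched tryptic peptides. Compound preincubation ran 1 hr at 25° C in PBS lysate holding 5 mg/ml proteome before the probe was added.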

In assay [2] the target is T2, TRMT1L TRMT1-like protein (Homo sapiens, UniProt Q7Z2T5).
T2 construct: Cells were resuspended in cold PBS on ice and sonicated with a probe sonicator to achieve lysis; endogenous in cells
T2 sequence (Q7Z2T5 1-733): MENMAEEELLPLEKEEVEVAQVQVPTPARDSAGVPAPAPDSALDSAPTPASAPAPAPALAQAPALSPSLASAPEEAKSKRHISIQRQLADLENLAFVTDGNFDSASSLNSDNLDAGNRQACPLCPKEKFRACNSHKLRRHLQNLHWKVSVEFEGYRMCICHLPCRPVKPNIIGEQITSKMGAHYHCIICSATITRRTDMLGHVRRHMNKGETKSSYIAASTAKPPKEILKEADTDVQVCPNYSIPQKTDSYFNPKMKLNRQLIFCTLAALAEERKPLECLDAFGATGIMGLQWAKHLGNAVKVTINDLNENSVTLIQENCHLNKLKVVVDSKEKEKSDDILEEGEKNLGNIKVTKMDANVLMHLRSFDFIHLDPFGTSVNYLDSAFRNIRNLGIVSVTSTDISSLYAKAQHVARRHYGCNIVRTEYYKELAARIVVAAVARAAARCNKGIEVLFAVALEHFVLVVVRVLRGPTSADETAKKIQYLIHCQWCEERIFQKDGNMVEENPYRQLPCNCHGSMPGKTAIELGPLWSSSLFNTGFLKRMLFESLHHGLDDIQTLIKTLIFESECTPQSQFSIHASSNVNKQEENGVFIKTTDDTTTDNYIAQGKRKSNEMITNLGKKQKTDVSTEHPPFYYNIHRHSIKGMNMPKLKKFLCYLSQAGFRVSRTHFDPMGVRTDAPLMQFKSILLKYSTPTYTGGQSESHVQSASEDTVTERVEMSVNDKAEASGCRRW
In words: Cysteine liganding, probe competition. The class given is binding. The gist of the method: as §1

[3] abbreviates: uniprot Q7Z2T5, in % (unit assumed).

`COc1ccc2c(c1)CCCN2C(=O)CCl` [KB02]: the Liganded entry in assay [1] (FASTKD5 Res# 670, uniprot Q7L8L6) was “YES”; in assay [2] (TRMT1L Res# 239, uniprot Q7Z2T5), “YES”.
As for `O=C(CCl)Nc1cc(C(F)(F)F)cc(C(F)(F)F)c1` [KBO3], in assay [1] (uniprot Q7L8L6), the “100 Max” value came out at 14.75, the 100 ave came out at 14.55, the “500 Max” value amounted to 57.23 and the 500 ave is listed as 45.06. Moreover, in assay [2] (uniprot Q7Z2T5), the 100 ave is on record as −17.83 and the 500 ave was found to be 36.38. Besides, in assay [2] (setting [3]), the “100 Max” value is −4.62 and the “500 Max” value came out at 36.38.
